Test results published in publication PMC7934871 (JCI Insight, 2021).
Non-standard residues stand in square brackets, D forms with d. No end group written: not given here. pY = N[C@@H](Cc1ccc(OP(=O)(O)O)cc1)C(=O)O

Experiments:
acetyl-STAT3 = molecular target: T1, acetyl-STAT3 (Homo sapiens, UniProt P40763); test: Immunoprecipitation of PS-oligo and Western blotting, acetyl-STAT3; format: binding; conditions: HCT116 cells, immunoprecipitation of PS-oligo, Western blotting
T1 construct: endogenous in cells; host or cells: HCT116
Experimental: Whole cell lysates or tissue homogenates were prepared by using RIPA lysis buffer (50 mM Tris at pH 7.4, 150 mM NaCl, 1 mM EDTA, 0.5% NP-40, 1 mM NaF, 15% glycerol, and 20 mM β-glycerophosphate). A protease inhibitor cocktail (Mini Protease Inhibitor Cocktail; Roche) and a tyrosine phosphatase inhibitor, sodium orthovanadate (Na3VO4, 1 mM), were added freshly to the lysis buffer. Protein amounts were determined by BCA using a Thermo Fisher Scientific kit. Normalized protein amounts were subjected to an SDS-PAGE and transferred onto a nitrocellulose membrane for Western blotting. Proteins were visualized with a chemiluminescent detection kit (Pierce, Thermo Fisher Scientific). The protein levels for STAT1 (sc-346, E-23), STAT3 (sc-482, C-20), STAT5 (sc-74442, A-9), Crm1 (exportin 1) (sc-5595, H-300), CAS (exportin 2) (sc-271537, H-2), exportin 5 (sc-66885, H-300), and exportin 7 (sc-98639, H-82) were determined using antibodies from Santa Cruz Biotechnology Inc. Anti–exportin 3 (exportin T, 630622, LOS1 05-1525), anti–exportin 4 (3499-1), and anti–exportin 6 (11408-1-AP) were from MilliporeSigma, Epitomics, and Proteintech, respectively. […]
labeled PS-acet.-STAT3 peptide. The fluorescence intensity of FAM-labeled PS-acet.-STAT3 peptide in the cells was quantified by flow cytometry. […]
quantification of FAM. […]
above were assessed by qRT-PCR. […]

cancer cells = test: Confocal microscopy of peptide localisation; format: cell-based; conditions: 1 μM, 1 hour
Experimental: Figure 8 PS-Gp130 and PS-MYC blocking peptides efficiently internalize into tumor cells to exert their functions. (A) For 1 hour 1 μM of PS-conjugated MYC (PS-MYC) and Gp130 (PS-Gp130) were incubated with cancer cells. PS-scramble MYC (PS-SC-MYC) was used as a control for PS-MYC. The peptide uptake was visualized by confocal microscopy and quantified by flow cytometry. Data are representative of 3 independent experiments (n = 3). (B) Upper panel: The binding of PS-Gp130 and STAT3 was examined by immunoprecipitation and Western blotting. PO-Gp130 was used as a control. For 4 hours prior to harvest, 1 μM of peptide was incubated with cells. Lower panel: PS-Gp130 inhibits IL-6–induced phosphorylation of STAT3 and p44/42 but not EGF-mediated signaling. The cells were preincubated with PS-Gp130 for 2 hours and then stimulated with 20 ng/mL of IL-6 or 30 ng/mL of EGF for 30 minutes before harvest and Western blotting. (C) Gene expression of STAT3 targets was examined by quantitative PCR after the treatment with 1 μM of PS-Gp130 with or without IL-6 stimulation as described above. Data shown are 3 independent experiments (n = 3); SD is shown. Unpaired Student’s t test; ***P < 0.005; **P < 0.01; *P < 0.05. (D) A total of 1 μM of PS-SC-MYC or PS-MYC was incubated with cells for 48 hours before the gene expression of MYC targets was examined by quantitative PCR. […]

T1 sequence (P40763 whole entry): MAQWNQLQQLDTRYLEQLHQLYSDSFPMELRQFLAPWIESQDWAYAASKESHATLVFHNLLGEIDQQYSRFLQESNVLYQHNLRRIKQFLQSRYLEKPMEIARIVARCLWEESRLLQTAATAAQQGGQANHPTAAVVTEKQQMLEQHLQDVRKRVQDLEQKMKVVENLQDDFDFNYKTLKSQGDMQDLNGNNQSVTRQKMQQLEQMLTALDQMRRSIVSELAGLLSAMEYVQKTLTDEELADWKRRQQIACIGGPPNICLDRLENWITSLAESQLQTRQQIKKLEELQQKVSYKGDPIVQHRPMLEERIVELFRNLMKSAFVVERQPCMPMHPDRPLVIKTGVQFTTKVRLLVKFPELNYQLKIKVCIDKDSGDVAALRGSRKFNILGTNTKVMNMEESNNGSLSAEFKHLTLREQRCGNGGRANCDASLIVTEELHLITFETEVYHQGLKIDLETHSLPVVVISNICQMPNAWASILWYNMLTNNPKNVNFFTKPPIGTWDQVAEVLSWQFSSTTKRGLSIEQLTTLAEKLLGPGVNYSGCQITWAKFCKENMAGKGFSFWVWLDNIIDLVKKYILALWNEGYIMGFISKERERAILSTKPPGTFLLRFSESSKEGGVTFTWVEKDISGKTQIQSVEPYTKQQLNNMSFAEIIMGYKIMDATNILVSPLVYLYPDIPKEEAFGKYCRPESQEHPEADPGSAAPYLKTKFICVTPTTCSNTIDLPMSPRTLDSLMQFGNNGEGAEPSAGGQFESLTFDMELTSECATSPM

Row | Substance | binding to acetyl-STAT3 (acetyl-STAT3) | intracellular localisation / retention of peptide (cancer cells)
1 | PDIPKEEAFGK685(Ac)YCRPESQEHPC-linker-T*C*C*A*T*G*A*G*C*T*T*C*C*T*G*A*T*G*C*T [PS-acet.-STAT3 peptide] | directly bound | 
2 | PS-Gp130: PS-conjugated Gp130 peptide (amino acids 901–910) with phospho-Tyr905 (MPKS[pY]LPQTV; also: phosphorothioate oligonucleotide conjugate; UniProt P40189 901-910, looked up, fragment) |  | detected in the cytoplasm or associated with the membrane
